Assay type in all cases: biochemical
Assay [1] has as its target T1, recombinant human DAO (diamine oxidase) (Homo sapiens, UniProt P19801).
T1 construct: purchased R&D systems
T1 sequence (P19801 20-751): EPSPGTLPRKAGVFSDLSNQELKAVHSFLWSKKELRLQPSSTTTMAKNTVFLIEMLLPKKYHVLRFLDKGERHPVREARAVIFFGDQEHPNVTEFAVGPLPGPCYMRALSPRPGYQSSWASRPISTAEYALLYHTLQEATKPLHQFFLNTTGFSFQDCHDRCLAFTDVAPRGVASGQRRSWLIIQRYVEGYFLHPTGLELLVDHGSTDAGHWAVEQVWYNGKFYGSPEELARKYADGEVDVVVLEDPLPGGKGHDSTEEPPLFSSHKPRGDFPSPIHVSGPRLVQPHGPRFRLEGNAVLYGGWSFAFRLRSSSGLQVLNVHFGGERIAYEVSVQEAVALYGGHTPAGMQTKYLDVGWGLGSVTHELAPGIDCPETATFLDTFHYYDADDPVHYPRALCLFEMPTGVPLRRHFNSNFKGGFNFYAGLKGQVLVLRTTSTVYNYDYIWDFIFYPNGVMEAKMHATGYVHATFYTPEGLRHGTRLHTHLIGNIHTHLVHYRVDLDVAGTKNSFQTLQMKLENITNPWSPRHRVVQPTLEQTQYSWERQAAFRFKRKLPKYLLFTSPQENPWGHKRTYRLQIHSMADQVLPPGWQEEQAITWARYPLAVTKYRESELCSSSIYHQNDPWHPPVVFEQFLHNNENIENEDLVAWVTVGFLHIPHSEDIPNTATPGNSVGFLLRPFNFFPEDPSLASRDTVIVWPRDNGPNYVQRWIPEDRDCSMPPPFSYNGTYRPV
Put plainly: Activity evaluation on recombinant human DAO (Amplex Red/HRP-coupled assay, 1 mM putrescine substrate). The note with it: read-out: Inhibitory Activity (IC50, nM) DAO. In a few lines: (§1)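 Compounds preincubated 30 min at 37 °C with enzyme in 50 mM sodium phosphate pH 7.4 (final DMSO <1%, 8-point 1:3 dilutions); reaction started with 200 uM Amplex Red, 1 U/mL HRP and substrate (MAO-A 0.5 mM tyramine, MAO-B 1 mM benzylamine, DAO 1 mM putrescine). Resorufin fluorescence (ex 544/em 590 nm) followed over 1-2 h; IC50 from four-parameter logistic fit.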

Assay [2] deals with T2, recombinant human MAO-B (monoamine oxidase-B) (Homo sapiens, UniProt P27338).
T2 construct: purchased Sigma-Aldrich
T2 sequence (P27338 1-520): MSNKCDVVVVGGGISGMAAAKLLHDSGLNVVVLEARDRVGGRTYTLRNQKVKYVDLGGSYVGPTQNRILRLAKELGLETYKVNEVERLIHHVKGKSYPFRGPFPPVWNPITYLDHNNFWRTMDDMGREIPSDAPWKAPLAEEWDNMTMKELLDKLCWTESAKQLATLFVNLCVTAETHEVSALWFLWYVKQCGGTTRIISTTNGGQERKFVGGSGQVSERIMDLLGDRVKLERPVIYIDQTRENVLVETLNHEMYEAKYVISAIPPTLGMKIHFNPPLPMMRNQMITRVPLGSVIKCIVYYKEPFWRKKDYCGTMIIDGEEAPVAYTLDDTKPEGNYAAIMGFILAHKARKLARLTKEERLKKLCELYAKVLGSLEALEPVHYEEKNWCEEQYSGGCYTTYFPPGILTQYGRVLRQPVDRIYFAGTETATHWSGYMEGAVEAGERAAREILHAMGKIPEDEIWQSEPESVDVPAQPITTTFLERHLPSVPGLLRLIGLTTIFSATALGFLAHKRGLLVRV
In words: Activity evaluation on recombinant human MAO-B (Amplex Red/HRP-coupled assay, 1 mM benzylamine substrate). The note with it: read-out: Inhibitory Activity (IC50, nM) MAO-B. In a few lines:
as §1

In the next assay the target is T3, recombinant human VAP-1 (Homo sapiens, UniProt Q16853).
T3 construct: purchased R&D systems
T3 sequence (Q16853 1-763): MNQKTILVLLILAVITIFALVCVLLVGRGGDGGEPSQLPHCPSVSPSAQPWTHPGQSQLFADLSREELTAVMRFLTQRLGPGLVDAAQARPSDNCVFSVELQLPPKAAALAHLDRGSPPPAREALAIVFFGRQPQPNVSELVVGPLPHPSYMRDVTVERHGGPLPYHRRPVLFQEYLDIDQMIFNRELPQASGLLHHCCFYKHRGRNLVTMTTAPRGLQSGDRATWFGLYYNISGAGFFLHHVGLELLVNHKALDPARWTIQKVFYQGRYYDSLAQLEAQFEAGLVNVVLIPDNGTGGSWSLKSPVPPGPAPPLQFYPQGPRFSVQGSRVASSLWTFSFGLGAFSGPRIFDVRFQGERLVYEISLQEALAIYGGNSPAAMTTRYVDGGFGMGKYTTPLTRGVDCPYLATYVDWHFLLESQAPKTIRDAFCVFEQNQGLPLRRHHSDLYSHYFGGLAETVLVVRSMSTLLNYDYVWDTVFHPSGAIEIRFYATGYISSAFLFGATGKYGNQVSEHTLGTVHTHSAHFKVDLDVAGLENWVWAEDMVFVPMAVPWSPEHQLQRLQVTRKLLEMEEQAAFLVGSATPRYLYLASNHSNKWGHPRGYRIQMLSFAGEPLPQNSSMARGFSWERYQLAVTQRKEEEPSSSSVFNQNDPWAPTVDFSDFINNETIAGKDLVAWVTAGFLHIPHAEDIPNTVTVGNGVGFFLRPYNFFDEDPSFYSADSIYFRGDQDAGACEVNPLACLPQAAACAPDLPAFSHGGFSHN
Put plainly: Activity evaluation on recombinant human VAP-1 (Amplex Red/HRP-coupled hydrogen peroxide assay, benzylamine substrate). The note with it: read-out: Inhibitory Activity (IC50, nM) human VAP-1. In a few lines: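 Recombinant human VAP-1 in 50 mM sodium phosphate pH 7.4 preincubated 30 min at 37 °C with compound (8-point 1:3 series, <1% DMSO), then 1 mM benzylamine, 200 uM Amplex Red, 1 U/mL HRP added. H2O2-derived resorufin fluorescence (ex 544/em 590) followed 1–2 h; IC50 from four-parameter fit of rate inhibition.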

For assay [3], the target named is T4, recombinant human MAO-A (monoamine oxidase-A) (Homo sapiens, UniProt P21397).
T4 construct: purchased Sigma-Aldrich
T4 sequence (P21397 1-527): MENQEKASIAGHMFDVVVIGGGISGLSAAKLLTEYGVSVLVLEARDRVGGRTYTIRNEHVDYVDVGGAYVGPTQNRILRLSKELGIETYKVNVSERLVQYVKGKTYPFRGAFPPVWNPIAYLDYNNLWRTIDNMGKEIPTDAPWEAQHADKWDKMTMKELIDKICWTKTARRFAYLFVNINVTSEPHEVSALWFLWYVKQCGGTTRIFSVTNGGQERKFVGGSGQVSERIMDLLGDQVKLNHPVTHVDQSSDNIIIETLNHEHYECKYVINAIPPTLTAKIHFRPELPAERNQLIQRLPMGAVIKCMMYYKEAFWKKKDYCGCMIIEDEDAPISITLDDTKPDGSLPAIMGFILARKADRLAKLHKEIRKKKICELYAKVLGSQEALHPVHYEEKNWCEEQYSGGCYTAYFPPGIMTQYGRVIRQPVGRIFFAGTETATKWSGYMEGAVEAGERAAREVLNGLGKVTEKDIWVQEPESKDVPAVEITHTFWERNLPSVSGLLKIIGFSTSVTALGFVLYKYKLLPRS
Put plainly: Activity evaluation on recombinant human MAO-A (Amplex Red/HRP-coupled assay, 0.5 mM tyramine substrate). Particulars: read-out: Inhibitory Activity (IC50, nM) MAO-A. In a few lines: as §1

The mark [4] stands for this setting: recombinant human VAP-1, benzylamine substrate.
[5] abbreviates: recombinant human VAP-1, 30 min preincubation at 37° C., 1 mM benzylamine.

Counter-ions that a name gives are not always drawn. Like-named read-outs stand apart in the source and are kept apart here. Where only a bound is given, the exact number is not on record here.

One may read the IC50 as the concentration at which inhibition is half-maximal.

`Cc1cc(-c2ccc3c(c2)CN(C)C(=O)N3)cnc1-n1cnn(CC(CN)=C(F)F)c1=O` [Example 250, 6-[6-[1-[2-(aminomethyl)-3,3-difluoro-allyl]-5-oxo-1,2,4-triazol-4-yl]-5-methyl-3-pyridyl]-3-methyl-1,4-dihydroquinazolin-2-one Trifluoroacetate]: the IC50 was 4300 nM in assay [1] (1 mM putrescine substrate), > 100000 nM in assay [2] (1 mM benzylamine substrate), 0.2 nM on recombinant human VAP-1 (setting [4]) and > 100000 nM in assay [3] (0.5 mM tyramine substrate).
On to `Cc1cc(-c2cc(-n3cnn(CC(CN)=C(F)F)c3=O)ccn2)cc2c1NC(=O)CC2` [Example 65, 6-[4-[1-[2-(aminomethyl)-3,3-difluoro-allyl]-5-oxo-1,2,4-triazol-4-yl]-2-pyridyl]-8-methyl-3,4-dihydro-1H-quinolin-2-one Trifluoroacetate], for which the IC50 was 290 nM in assay [1] (1 mM putrescine), 12000 nM in assay [2] (1 mM benzylamine), 0.3 nM on recombinant human VAP-1 (setting [5]) and > 100000 nM in assay [3] (0.5 mM tyramine).
In the case of `Cc1cc(-c2ccc3cc(Cn4cnn(CC(CN)=C(F)F)c4=O)sc3c2)cc2c1NC(=O)CC2` [Example 202, 6-[2-[[1-[2-(aminomethyl)-3,3-difluoro-allyl]-5-oxo-1,2,4-triazol-4-yl]methyl]benzothiophen-6-yl]-8-methyl-3,4-dihydro-1H-quinolin-2-one Trifluoroacetate], the IC50 was 5600 nM in assay [1] (1 mM putrescine substrate), > 100000 nM in assay [2] (1 mM benzylamine substrate), 2 nM at recombinant human VAP-1 (setting [4]) and > 100000 nM in assay [3] (0.5 mM tyramine substrate).
For the compound `Cc1cc(C#Cc2cnc3c(c2)OCC(=O)N3)cnc1-n1cnn(CC(CN)=C(F)F)c1=O` [Example 248, 7-[2-[6-[1-[2-(aminomethyl)-3,3-difluoro-allyl]-5-oxo-1,2,4-triazol-4-yl]-5-methyl-3-pyridyl]ethynyl]-4H-pyrido[3,2-b][1,4]oxazin-3-one trifluoroacetate], the IC50 in assay [1] (1 mM putrescine substrate) is > 100000 nM; in assay [2] (1 mM benzylamine substrate), 14000 nM; at recombinant human VAP-1 (setting [4]) it was 2.7 nM; in assay [3] (0.5 mM tyramine substrate) it was > 100000 nM.
In the case of `NCC(Cn1ncn(-c2ccc(Br)c(F)c2)c1=O)=C(F)F` [Example 4, 2-[2-(aminomethyl)-3,3-difluoro-allyl]-4-(4-bromo-3-fluoro-phenyl)-1,2,4-triazol-3-one Trifluoroacetate], the IC50 in assay [1] (1 mM putrescine) was 58000 nM; in assay [2] (1 mM benzylamine) it was 2300 nM; on recombinant human VAP-1 (setting [5]) it was 4.2 nM; in assay [3] (0.5 mM tyramine) it was > 100000 nM.
For the compound `CCn1cc(-c2cc(F)c(Cn3cnn(CC(CN)=C(F)F)c3=O)s2)cn1` [Example 302, 2-[2-(aminomethyl)-3,3-difluoro-allyl]-4-[[5-(1-ethylpyrazol-4-yl)-3-fluoro-2-thienyl]methyl]-1,2,4-triazol-3-one Trifluoroacetate], the IC50 in assay [1] (1 mM putrescine substrate) was 19500 nM; in assay [2] (1 mM benzylamine substrate), > 100000 nM; on recombinant human VAP-1 (setting [4]), 1.1 nM; in assay [3] (0.5 mM tyramine substrate) it was > 100000 nM.
With `NCC(Cn1ncn(-c2cccc(-c3ccc(C(=O)N4CCOCC4)cc3)n2)c1=O)=C(F)F` [Example 214, 2-[2-(aminomethyl)-3,3-difluoro-allyl]-4-[6-[4-(morpholine-4-carbonyl)phenyl]-2-pyridyl]-1,2,4-triazol-3-one Trifluoroacetate], the IC50 in assay [1] (1 mM putrescine substrate) is 940 nM; in assay [2] (1 mM benzylamine substrate), > 100000 nM; at recombinant human VAP-1 (setting [4]), 1.7 nM; in assay [3] (0.5 mM tyramine substrate), > 100000 nM.
Turning to `Cc1cc(-c2cccc(-n3cnn(CC(CN)=C(F)F)c3=O)n2)cc2c1NC(=O)CC2` [Example 51, 6-[6-[1-[2-(aminomethyl)-3,3-difluoro-allyl]-5-oxo-1,2,4-triazol-4-yl]-2-pyridyl]-8-methyl-3,4-dihydro-1H-quinolin-2-one Trifluoroacetate], the IC50 in assay [1] (1 mM putrescine) is 520 nM; in assay [2] (1 mM benzylamine), 28000 nM; at recombinant human VAP-1 (setting [5]) it was 0.6 nM; in assay [3] (0.5 mM tyramine), > 100000 nM.
On to `Cc1c(-c2ccc(N3CCNCC3)cc2)cccc1-n1cnn(CC(CN)=C(F)F)c1=O` [Example 254, 2-[2-(aminomethyl)-3,3-difluoro-allyl]-4-[2-methyl-3-(4-piperazin-1-ylphenyl)phenyl]-1,2,4-triazol-3-one Ditrifluoroacetate], for which the IC50 in assay [1] (1 mM putrescine substrate) is > 100000 nM; in assay [2] (1 mM benzylamine substrate), > 100000 nM; at recombinant human VAP-1 (setting [4]), 8 nM; in assay [3] (0.5 mM tyramine substrate), > 100000 nM.
With `CCn1cc(-c2ccc(Cn3cnn(CC(CN)=C(F)F)c3=O)s2)cn1` [Example 119, 2-[2-(aminomethyl)-3,3-difluoro-allyl]-4-[[5-(1-ethylpyrazol-4-yl)-2-thienyl]methyl]-1,2,4-triazol-3-one Trifluoroacetate], the concentration for half-maximal inhibition (IC50) is > 10000 nM in assay [1] (1 mM putrescine), 30000 nM in assay [2] (1 mM benzylamine), 0.5 nM at recombinant human VAP-1 (setting [5]) and > 100000 nM in assay [3] (0.5 mM tyramine).
As to `CN1C(=O)CCc2cc(-c3ccc(Cn4cnn(CC(CN)=C(F)F)c4=O)s3)ccc21` [Example 138, 6-[5-[[1-[2-(aminomethyl)-3,3-difluoro-allyl]-5-oxo-1,2,4-triazol-4-yl]methyl]-2-thienyl]-1-methyl-3,4-dihydroquinolin-2-one Trifluoroacetate], the IC50 was 13000 nM in assay [1] (1 mM putrescine), 15000 nM in assay [2] (1 mM benzylamine), 0.1 nM at recombinant human VAP-1 (setting [5]) and > 100000 nM in assay [3] (0.5 mM tyramine).

The record behind these values is patent publication US11168073B2, “3,3-difluoroallylamines or salts thereof and pharmaceutical compositions comprising the same” (YUHAN CORPORATION, priority 2018, dated 2021).
